“Also recorded” adds a separate entry of the source.
What was measured:
U937 cells = experiment: Staurosporine treatment of human monoblastic U937 cells; type: cell-based
variety of cell types = conditions: cited from earlier work
HeLa cells = experiment: Staurosporine treatment of HeLa cells: cytochrome c in S-cytosol and PARP cleavage; type: cell-based, human; conditions: 1 μM, 6 hr
Description: HeLa cells were treated as described in FIG. 9. On day 2, staurosporine at a final concentration of 1 μM was added to the medium as indicated. After incubation at 37° C. for 6 hr, the cells were harvested and S-cytosols were prepared as described in FIG. 9. In FIG. 10A, a 50 μg aliquot of HeLa cell S-100 as in FIGS. 1-7 (lane 1), or S-cytosol from HeLa cells (lane 2), or S-cytosol from HeLa cells treated with staurosporine for 6 hr. In lane 4, aliquot of 0.2 μg of Apaf-2 purified through Mono S column step. Proteins were separated using 15% SDS-PAGE, transferred to a nitrocellulose filter, and probed with a monoclonal anti-cytochrome c antibody and the antigen/antibody complex was visualized by the ECL method as described herein. Kodak X-OMAT AR X-ray film was exposed for 15 seconds. The arrow denotes the position of cytochrome c; X denotes protein bands cross-reacting with this antibody. In FIG. 10B, aliquots containing 4.5 μg of S-cytosol from HeLa cells (−staurosporine) or HeLa cells treated with 1 μM staurosporine for 6 hr (+staurosporine) were incubated with 10 μl aliquots of in vitro translated, 35S-labeled PARP for 30 min at 30° C. in a volume of 20 μl of buffer A. Samples were then subjected to 12% SDS-PAGE, transferred to a nitrocellulose filter, and film was exposed for 4 hr at room temperature.
HeLa cells were treated with staurosporine. […]

hamster liver nuclei = experiment: DNA fragmentation assay (HeLa S-100 incubated with hamster liver nuclei); type: biochemical; conditions: 1 mM nucleotide, 37° C., 2 hr
Description: FIGS. 1A-1D illustrate dATP-dependent activation of CPP32 and DNA fragmentation in vitro. Aliquots (10 μl) of HeLa cell S-100 (50 μg) were incubated alone (lane 1), in the presence of 1 mM ATP (lane 2), or in the presence of 1 mM dATP (lane 3) at 30° C. for 1 hr in a final volume of 20 μl of buffer A. FIG. 1A, samples were subjected to SDS-PAGE and transferred to a nitrocellulose filter, probed with a monoclonal anti-CPP32 antibody, and the antigen/antibody complex was visualized by the ECL method. The filter was exposed to Kodak X-OMAT AR X-ray film for 1 min. In FIG. 1B, an aliquot of 10 μl of in vitro translated, ^35S-labeled PARP was added to each reaction. After 5 min, the samples were subjected to SDS-PAGE and transferred to a nitrocellulose filter. The filter was exposed to film for 2 hr at room temperature. In FIG. 1C, a 5 μl aliquot of in vitro translated, ^35S-labeled SREBP-2 was added to each reaction. After incubation at 30° C. for 30 min, the samples were subjected to SDS-PAGE, the gel was dried and exposed to film for 2 hr at room temperature. […]
FIGS. 2A-2B illustrate the nucleotide specificity for in vitro activation of CPP32 and DNA fragmentation. […] The DNA was isolated, analyzed by 2% agarose gel electrophoresis and visualized by ethidium bromide staining. […]

CPP32 = experiment: Activation of endogenous CPP32 in HeLa cell S-100 (Western blot; cleavage of 35S-labeled PARP and SREBP-2); type: biochemical, human; conditions: 1 mM nucleotide, 30° C., 1 hr, Western blot
Description: FIGS. 1A-1D illustrate dATP-dependent activation of CPP32 and DNA fragmentation in vitro. Aliquots (10 μl) of HeLa cell S-100 (50 μg) were incubated alone (lane 1), in the presence of 1 mM ATP (lane 2), or in the presence of 1 mM dATP (lane 3) at 30° C. for 1 hr in a final volume of 20 μl of buffer A. FIG. 1A, samples were subjected to SDS-PAGE and transferred to a nitrocellulose filter, probed with a monoclonal anti-CPP32 antibody, and the antigen/antibody complex was visualized by the ECL method. The filter was exposed to Kodak X-OMAT AR X-ray film for 1 min. In FIG. 1B, an aliquot of 10 μl of in vitro translated, ^35S-labeled PARP was added to each reaction. After 5 min, the samples were subjected to SDS-PAGE and transferred to a nitrocellulose filter. The filter was exposed to film for 2 hr at room temperature. In FIG. 1C, a 5 μl aliquot of in vitro translated, ^35S-labeled SREBP-2 was added to each reaction. After incubation at 30° C. for 30 min, the samples were subjected to SDS-PAGE, the gel was dried and exposed to film for 2 hr at room temperature. In FIG. 1D, a 50 μlaliquot of HeLa cell S-100 (250 μg) was incubated with 6 μl Hamster Liver nuclei in the absence (lane 1), or presence of 1 mM ATP (lane 2) or dATP (lane 3) for 2 hr at 37° C. in a final volume of 60 μl of buffer A. DNA was isolated as described in the Examples and size-separated by agarose gel electrophoresis (2% agarose), and the DNA was visualized by ethidium bromide staining.
Activation of CPP32 and DNA fragmentation are two well characterized biochemical markers of apoptosis and its initiation. With the goal of producing an in vitro system that duplicates apoptosis, we prepared 100,000×g cytosolic supernatant (S-100) from suspension cultures of HeLa cells. The activation of CPP32 is the result of cleavage of its 32 kDa precursor into the 20 kDa NH2-terminal fragment and 11 kDa COOH-terminal fragment [Nicholson et al. (1995) supra], thus the activation of CPP32 in the HeLa cell S-100 was monitored by Western blot analysis using a monoclonal antibody against the 20 kDa fragment of CPP32 (FIG. 1A). The enzymatic activity of CPP32 was assayed by measuring the cleavage of two ^35S-labeled substrates, PARP (FIG. 1B) and SREBP-2 (FIG. 1C). DNA fragmentation was assayed by incubating the HeLa cell S-100 with nuclei isolated from hamster liver followed by genomic DNA extraction and analysis by agarose gel electrophoresis. […] The sizes of the cleaved products of PARP and SREBP-2 were the same as observed in cells undergoing apoptosis [Kaufmann et al. (1993) Cancer Res. 53, 3976-3985; Wang et al. (1996) supra]. […]

CN[C@@H]1C[C@H]2O[C@@](C)([C@@H]1OC)n1c3ccccc3c3c4c(c5c6ccccc6n2c5c31)C(=O)NC4 [staurosporine]
cytochrome c in cytosol / CPP32 activation (U937 cells): The same phenomenon was also observed | initiation of apoptosis (variety of cell types): potent apoptosis inducer | activation of endogenous CPP32 detected by cleavage of PARP (HeLa cells): resulted in activation of the endogenous CPP32 | cytochrome c in S-cytosol (HeLa cells; vs non-treated cells): increased release of cytochrome c to the cytosol; also recorded: markedly elevated cytochrome c; also recorded: increased cytosolic cytochrome c

Nc1ncnc2c1ncn2[C@@H]1O[C@H](COP(=O)(O)OP(=O)(O)OP(=O)(O)O)[C@@H](O)[C@H]1O [ATP]
DNA fragmentation in hamster liver nuclei (hamster liver nuclei): Such fragmentation did not occur | activation of CPP32 in HeLa cell S-100 (CPP32): no activation of CPP32 was observed

From patent US6558900B2, “Regulation of apoptosis and in vitro model for studies thereof” (Emory University, priority 1996, dated 2003)
